The record followed here is US20230277603A1, “VEILLONELLA PARVULA STRAIN AS AN ORAL THERAPY FOR NEUROINFLAMMATORY DISEASES” (Evelo Biosciences, Inc., priority 2020, published 2023).

This test relates to relapse-remitting EAE model induced with PLP139-151 peptide in SJL mice. In words: SJL EAE model, therapeutic treatment (Example 3), clinical results. Format: in vivo. Particulars: for MMS ± SD: Day 0-42; for MMS ± SD / Incidence of relapse (%) / MMS of relapse period ± SD (Days 18-42) / End % body weight ± SD / End score ± SD: PO QD day ~11 - day 42; for MMS until Day 17 ± SD: acute phase, PO QD from day ~11; for End % body weight ± SD / End score ± SD: end of study. As to the method: The SJL EAE model is a Th17/Th1-mediated mouse model of relapsing-remitting neuroinflammatory disease that is induced via immunization with proteolipid protein (PLP), a major protein constituent of CNS myelin. Disease pathology is due to infiltration of immune cells in the CNS leading to decreased motor function and paralysis. Briefly, in this model mice are injected subcutaneously with an emulsion of PLP-peptide plus CFA and intraperitoneally with pertussis toxin on day 0. Acute neuroinflammatory disease develops between day 10 to day 16, and the relapsing-remitting disease phase occurs from day 20 to day 45. Mice are dosed daily from the day of sensitization through the end of the study by oral gavage. In a therapeutic model, dosing of the mice begins on the second day of disease (~ Day 11 after disease induction). Mice are scored daily for a decrease in motor function and complete paralysis in the tail and limbs. Histopathology is carried out to score the frequency of inflammatory infiltrates and demyelination in the spinal cord.
The model details and read-outs, and methods are described below. Treatment began two days after disease onset, around day ~11 (mice were enrolled on the second day of disease for each mouse).
Experimental Autoimmune Encephalomyelitis. Female SJL mice (8-10 weeks old) were subcutaneously injected at four sites with myelin proteolipid protein (PLP) 139-151 in CFA emulsion (0.05 mL/injection site; ~0.5 mg PLP PLP139-151/mL; Hooke Laboratories; EK-2120). Following immunization, EAE induction was completed by intraperitoneal injections of pertussis toxin (6 µg/mL; 0.1 mL/mouse) within 2 hours of immunization. Mice were randomized into groups and monitored for EAE clinical score over the course of 42 days. Disease progression was scored blinded of treatment or prior measurements. Disease severity was scored using standard EAE criteria: 0 (normal); 1 (loss of tail tone); 2 (hind limb weakness); 3 (hind limb paralysis); 4 (hind limb paralysis and forelimb paralysis or weakness); 5 (morbidity/death). Mice were observed daily for clinical symptoms.
• Vehicle (anaerobic sucrose buffer) PO QD day ~11 - day 42 • G.I. Strain A 10 mg/dose PO QD day ~11 - day 42 • Fingolimod, 1 mg/kg PO QD day ~11 - day 42 • Fingolimod, 0.1 mg/kg PO QD day ~11 - day 42
G.I. Strain A was prepared as a lyophilized powder and was gamma irradiated prior to use.

The mark [1] stands for this setting: Strain A 10 mg/dose, Fingolimod 1 mg/kg.

As for `CCCCCCCCc1ccc(CCC(N)(CO)CO)cc1` [Fingolimod], where the note is “Fingolimod 0.1 mg/kg”, the “MMS ± SD” value is recorded as 3.20±0.70, the “Incidence of relapse (%)” value is on record as 28.6%, the “MMS of relapse period ± SD (Days 18-42)” value is 1.77±1.53 and the “MMS until Day 17 ± SD” value is on record as 3.13 ± 0.69. For the same compound, under “Fingolimod 0.1 mg/kg”, the “End % body weight ± SD” value is on record as 95.2±11.1% and the “End score ± SD” value worked out at 0.97±1.45. Besides, under setting [1], the “MMS ± SD” value came to 3.13±0.52, the “Incidence of relapse (%)” value came to 0%, the “MMS of relapse period ± SD (Days 18-42)” value stood at 0.83±0.67 and the “MMS until Day 17 ± SD” value is recorded as 3.13±0.52. For the same compound, under setting [1], the “End % body weight ± SD” value stood at 101.8±12.0% and the “End score ± SD” value worked out at 0.10±0.21.
